Measured values as given in paper PMC3988539 (Neuropsychopharmacology : official publication of the …, 2013).
Structures can show the parent of a compound that is named as a salt.

What was measured:
[1] = tested on: extracellular 5-HT in nucleus accumbens; type: in vivo, rat; conditions: 6 mg/kg i.p.; for persistent elevation of extracellular 5-HT for the duration of sampling: 4 doses every 2 h, 8 h sampling, % of basal; for extracellular 5-HT after the first dose: first of 4 doses, nucleus accumbens dialysate
[2] = tested on: extracellular dopamine in nucleus accumbens; test: In vivo microdialysis in rat nucleus accumbens, dialysate dopamine; conditions: 6 mg/kg i.p., 4 doses; not different from saline in post hoc tests
SERT = SERT (Rattus norvegicus, UniProt P31652); test: In vitro [3H]5-HT release from rat brain synaptosomes; type: biochemical
hSERT = hSERT (Homo sapiens, UniProt P31645); test: cell-based; type: cell-based; conditions: for concentration at which maximal current was measured: bell-shaped concentration-response curve; for inwardly-directed current compared to 5-HT-induced current: raw current traces, reference 10 μM 5-HT
[3] = tested on: [3H]dopamine release, rat caudate synaptosomes; test: In vitro [3H]dopamine release from rat caudate synaptosomes; type: biochemical; conditions: tested at concentrations up to 10 μM (data not shown)

Chain of hSERT (P31645 whole entry): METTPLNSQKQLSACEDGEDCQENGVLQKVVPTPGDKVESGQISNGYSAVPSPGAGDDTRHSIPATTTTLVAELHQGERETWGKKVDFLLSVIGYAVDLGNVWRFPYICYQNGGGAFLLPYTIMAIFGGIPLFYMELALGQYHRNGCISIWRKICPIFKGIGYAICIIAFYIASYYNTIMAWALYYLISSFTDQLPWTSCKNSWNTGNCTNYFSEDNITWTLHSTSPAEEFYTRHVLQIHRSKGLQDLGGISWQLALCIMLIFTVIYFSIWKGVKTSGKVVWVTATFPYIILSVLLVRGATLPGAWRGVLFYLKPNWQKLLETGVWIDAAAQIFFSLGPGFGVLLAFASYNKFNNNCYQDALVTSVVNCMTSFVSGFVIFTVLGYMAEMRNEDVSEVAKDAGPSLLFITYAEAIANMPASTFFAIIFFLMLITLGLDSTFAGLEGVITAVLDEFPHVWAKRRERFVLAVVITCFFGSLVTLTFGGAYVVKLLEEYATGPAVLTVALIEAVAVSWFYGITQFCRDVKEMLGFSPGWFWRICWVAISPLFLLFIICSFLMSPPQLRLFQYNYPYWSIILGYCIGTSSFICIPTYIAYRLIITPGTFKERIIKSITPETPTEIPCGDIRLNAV
Chain of SERT (P31652 whole entry): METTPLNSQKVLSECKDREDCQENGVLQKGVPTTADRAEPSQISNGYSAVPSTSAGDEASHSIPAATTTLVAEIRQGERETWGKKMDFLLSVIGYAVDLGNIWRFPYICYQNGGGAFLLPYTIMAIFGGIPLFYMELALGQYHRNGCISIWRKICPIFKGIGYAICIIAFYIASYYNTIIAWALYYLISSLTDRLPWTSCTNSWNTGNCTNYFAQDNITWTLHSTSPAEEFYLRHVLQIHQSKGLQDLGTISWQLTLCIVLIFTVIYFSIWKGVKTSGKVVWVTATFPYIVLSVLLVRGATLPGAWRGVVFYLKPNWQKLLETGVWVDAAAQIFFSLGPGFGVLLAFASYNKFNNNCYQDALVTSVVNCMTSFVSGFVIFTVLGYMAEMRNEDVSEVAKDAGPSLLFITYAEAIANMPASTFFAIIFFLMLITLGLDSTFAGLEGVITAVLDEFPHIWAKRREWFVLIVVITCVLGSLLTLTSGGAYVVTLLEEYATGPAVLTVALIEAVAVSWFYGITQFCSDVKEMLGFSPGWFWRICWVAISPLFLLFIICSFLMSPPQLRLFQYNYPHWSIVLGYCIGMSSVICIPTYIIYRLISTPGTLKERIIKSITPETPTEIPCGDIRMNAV

SMILES	persistent elevation of extracellular 5-HT for the duration of sampling [1]	extracellular 5-HT after the first dose [1]	dialysate dopamine [2]	Emax of 5-HT release (SERT)	concentration at which maximal current was measured (hSERT; hSERT-expressing oocytes)	current magnitude relative to mCPP, TFMPP or MTA (hSERT; maximal currents, hSERT-expressing oocytes)	inwardly-directed current compared to 5-HT-induced current (hSERT)	releasing [3H]dopamine [3]	EC50 (hSERT)
CCNC(C)Cc1cccc(C(F)(F)F)c1 (racemic) [fenfluramine, (±)-N-ethyl-1-[3-(trifluoromethyl)phenyl]propan-2-amine hydrochloride]	500-800%	~1200 % of basal	about 150 % of basal	–	–	–	–	–	–
CC(N)Cc1cccc(C(F)(F)F)c1.Cl (single isomer, unassigned; (+)) [d-norfenfluramine, (+)-1-[3-(trifluoromethyl)phenyl]propan-2-amine hydrochloride]	–	–	–	100%	100 µM	up to 2 times	almost as high as the 5-HT-induced current	–	–
CSc1ccc(CC(C)N)cc1.CSc1ccc(C[C@@H](C)N)cc1 [MTA, 4-Methylthioamphetamine ((2R)-1-[4-(methylsulfanyl)phenyl]propan-2-amine)]	–	–	–	–	3 µM	–	comparably small current	–	–
Cl.FC(F)(F)c1cccc(N2CCNCC2)c1 [TFMPP, 1-(3-trifluoromethylphenyl)piperazine hydrochloride]	–	about 1400 % of basal	80 % of basal	–	3 µM	–	about half the 5-HT-induced current	inactive	2430 nM
CCN[C@@H](C)Cc1cccc(C(F)(F)F)c1 [d-fenfluramine, (+)-N-ethyl-1-[3-(trifluoromethyl)phenyl]propan-2-amine hydrochloride]	–	~1200 % of basal	–	–	–	–	–	inactive	–
Cl.Cl.Clc1cccc(N2CCNCC2)c1 [mCPP, 1-(3-Chlorophenyl)piperazine dihydrochloride]	about 500%	about 1000 % of basal	150 % of basal	–	3 µM	–	about half the 5-HT-induced current	inactive	1940 nM
